Values after ≈ are worked out from the molar mass of the structure shown. Like-named read-outs stand apart in the source and are kept apart here.
What was measured:
[1] = test system: Staphylococcus aureus SA161 (HA-MRSA, tet(M)); assay: MIC assay; type: cell-based
PA 689 = assay: MIC assay; type: cell-based; settings: read-out: MIC PA 689
[2] = test system: Klebsiella pneumoniae KP153 (tet(A), MDR, ESBL+)
PA 884 35151 = assay: MIC assay; type: cell-based; settings: read-out: MIC PA 884 35151
[3] = test system: Klebsiella pneumoniae KP457 (2009 ESBL+, CTX-M, OXA)
[4] = test system: Klebsiella pneumoniae KP109 (ATCC 13883); assay: MIC assay; type: cell-based
[5] = test system: Klebsiella pneumoniae KP153 (tet(A), MDR, ESBL+); assay: microbe, parasite or virus in culture; settings: read-out: MIC KP153 tetA
[6] = test system: Enterococcus faecium EF404 (blood isolate, tet(M)); assay: MIC assay; type: cell-based; settings: read-out: MIC EF 404 tetM, control compounds
[7] = test system: Streptococcus pneumoniae SP160 (tet(M)); assay: MIC assay; type: cell-based
[8] = test system: Escherichia coli EC107 (ATCC 25922); assay: MIC assay; type: cell-based; settings: ATCC25922, read-out: MIC EC 107 25922, control compounds

Structure (SMILES) | MIC SA 161 tetM ([1]; control compounds) | MIC (PA 689; Table 6, control compounds) | MIC KP 153 tetA [2] | MIC (PA 884 35151; Table 6, control compounds) | MIC KP 457 CTX-M-15 [3] | MIC ([4]; ATCC13883, Table 4, control compounds, read-out: MIC KP109 13883) | MIC [5] | MIC (PA 689) | MIC KP 153 tetA ([2]; Table 5, control compounds) | MIC (PA 884 35151) | MIC [6] | MIC ([1]; Staphylococcus aureus, MRSA, read-out: MIC SA 161 tetM, control compounds) | MIC ([7]; read-out: MIC SP 160 tetM, Table 5, control compounds) | MIC ([7]; read-out: MIC SP 160 tetM, control compounds) | MIC [8] | MIC KP 457 CTX-M-15 ([3]; Table 6, control compounds) | MIC KP 457 CTX-M-15 ([3]; Table 7, control compounds) | MIC ([4]; ATCC13883, read-out: MIC KP109 13883)
CN(C)c1ccc(O)c2c1C[C@H]1C[C@H]3[C@H](N(C)C)C(O)=C(C(N)=O)C(=O)[C@@]3(O)C(O)=C1C2=O [Minocycline, minocycline] | 8 µg/mL (≈ 17.5 µM) | 8 µg/mL (≈ 17.5 µM) | 8 µg/mL (≈ 17.5 µM) | 1 µg/mL (≈ 2.19 µM) | 8 µg/mL (≈ 17.5 µM) | 1 µg/mL (≈ 2.19 µM) | 8 µg/mL (≈ 17.5 µM) | – | – | – | – | – | – | – | – | – | – | –
CN(C)[C@@H]1C(O)=C(C(N)=O)C(=O)[C@@]2(O)C(O)=C3C(=O)c4c(O)cccc4C[C@H]3C[C@@H]12 [Sancycline, sancycline] | – | – | – | – | 8 µg/mL (≈ 19.3 µM) | – | 32 µg/mL (≈ 77.2 µM) | 16 µg/mL (≈ 38.6 µM) | 32 µg/mL (≈ 77.2 µM) | 4 µg/mL (≈ 9.65 µM) | – | – | – | – | – | – | – | –
CN(C)c1cc(NC(=O)CNC(C)(C)C)c(O)c2c1C[C@H]1C[C@H]3[C@H](N(C)C)C(O)=C(C(N)=O)C(=O)[C@@]3(O)C(O)=C1C2=O [Tigecycline, tigecycline] | – | – | – | – | – | – | – | 1 µg/mL (≈ 1.71 µM) | 1 µg/mL (≈ 1.71 µM) | 0.063 µg/mL (≈ 0.108 µM) | 0.06 µg/mL (≈ 0.102 µM) | 0.1 µg/mL (≈ 0.171 µM) | 0.2 µg/mL (≈ 0.341 µM) | 0.03 µg/mL (≈ 0.0512 µM) | 0.02 µg/mL (≈ 0.0341 µM) | 1 µg/mL (≈ 1.71 µM) | 1 µg/mL (≈ 1.71 µM) | 0.125 µg/mL (≈ 0.213 µM)

From patent US10913712B2, “Tetracycline compounds” (Tetraphase Pharmaceuticals, Inc., priority 2012, dated 2021)
